Test results as given in PubChem BioAssay AID1963837 (Molecular Pharmacology Branch, DTP, NCI, 2024).

test system: 843126-344-R-J1-PDC complex spheroid viability; test: Anticancer human tumor 843126-344-R-J1-PDC patient-derived melanoma cell line growth inhibition [POLQ]; conditions: second compound 1 µM; first compound 0.316 µM; stronger effect = lower value
How it was run: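 Three-cell-type spheroids modelling solid tumor plus stroma served as the readout system; POL inhibitors were tested individually and in combination, concentration ranges set by clinical Cmax where known.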
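Further: spheroids exposed to drugs for seven days before readout.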

Row | Structure (SMILES) | viability, T/C [%]
1 | CC1COCCN1c1cc(C2(O)CC3CCC(C2)O3)c2cnn(-c3ccn[nH]3)c2n1 (stereo unspecified) + Nc1ccc(C#CCN(C(=O)Cc2ncc(C(F)(F)F)cc2C(F)(F)F)c2ccc(F)cc2)nn1 | 48.5
2 | CCc1cc2c(N3CCc4c(cc(Cn5ccnc5)cc4-c4cn(C)nc4C(F)(F)F)C3=O)cc(C)nc2c(OC)n1 + Nc1ccc(C#CCN(C(=O)Cc2ncc(C(F)(F)F)cc2C(F)(F)F)c2ccc(F)cc2)nn1 | 80.3
3 | COc1cc2cc(C(=O)CCC(=O)O)sc2cc1OC + Nc1ccc(C#CCN(C(=O)Cc2ncc(C(F)(F)F)cc2C(F)(F)F)c2ccc(F)cc2)nn1 | 93.8
4 | O=C(Nc1ccc(O)c(NS(=O)(=O)c2ccc(F)cc2)c1)c1ccc(-c2ccccc2)cc1 + Nc1ccc(C#CCN(C(=O)Cc2ncc(C(F)(F)F)cc2C(F)(F)F)c2ccc(F)cc2)nn1 | 81.3

same assay, conditions: second compound 1 µM; first compound 1 µM; stronger effect = lower value

Row | Structure (SMILES) | viability, T/C [%]
5 | C#Cc1c(F)ccc2cc(O)cc(-c3ncc4c(N5CC6CCC(C5)N6)nc(OCC56CCCN5CC(F)C6)nc4c3F)c12 (stereo unspecified) + Nc1ccc(C#CCN(C(=O)Cc2ncc(C(F)(F)F)cc2C(F)(F)F)c2ccc(F)cc2)nn1 | 117
6 | CC1COCCN1c1cc(C2(O)CC3CCC(C2)O3)c2cnn(-c3ccn[nH]3)c2n1 (stereo unspecified) + Nc1ccc(C#CCN(C(=O)Cc2ncc(C(F)(F)F)cc2C(F)(F)F)c2ccc(F)cc2)nn1 | 38.8
7 | CCc1cc2c(N3CCc4c(cc(Cn5ccnc5)cc4-c4cn(C)nc4C(F)(F)F)C3=O)cc(C)nc2c(OC)n1 + Nc1ccc(C#CCN(C(=O)Cc2ncc(C(F)(F)F)cc2C(F)(F)F)c2ccc(F)cc2)nn1 | 81.7
8 | COc1cc2cc(C(=O)CCC(=O)O)sc2cc1OC + Nc1ccc(C#CCN(C(=O)Cc2ncc(C(F)(F)F)cc2C(F)(F)F)c2ccc(F)cc2)nn1 | 83.2
9 | O=C(Nc1ccc(O)c(NS(=O)(=O)c2ccc(F)cc2)c1)c1ccc(-c2ccccc2)cc1 + Nc1ccc(C#CCN(C(=O)Cc2ncc(C(F)(F)F)cc2C(F)(F)F)c2ccc(F)cc2)nn1 | 90

same assay, conditions: second compound 1 µM; first compound 3.16 µM; stronger effect = lower value

Row | Structure (SMILES) | viability, T/C [%]
10 | C#Cc1c(F)ccc2cc(O)cc(-c3ncc4c(N5CC6CCC(C5)N6)nc(OCC56CCCN5CC(F)C6)nc4c3F)c12 (stereo unspecified) + Nc1ccc(C#CCN(C(=O)Cc2ncc(C(F)(F)F)cc2C(F)(F)F)c2ccc(F)cc2)nn1 | 109
11 | CC1COCCN1c1cc(C2(O)CC3CCC(C2)O3)c2cnn(-c3ccn[nH]3)c2n1 (stereo unspecified) + Nc1ccc(C#CCN(C(=O)Cc2ncc(C(F)(F)F)cc2C(F)(F)F)c2ccc(F)cc2)nn1 | 28.7
12 | CCc1cc2c(N3CCc4c(cc(Cn5ccnc5)cc4-c4cn(C)nc4C(F)(F)F)C3=O)cc(C)nc2c(OC)n1 + Nc1ccc(C#CCN(C(=O)Cc2ncc(C(F)(F)F)cc2C(F)(F)F)c2ccc(F)cc2)nn1 | 68.6
13 | COc1cc2cc(C(=O)CCC(=O)O)sc2cc1OC + Nc1ccc(C#CCN(C(=O)Cc2ncc(C(F)(F)F)cc2C(F)(F)F)c2ccc(F)cc2)nn1 | 90.1
14 | O=C(Nc1ccc(O)c(NS(=O)(=O)c2ccc(F)cc2)c1)c1ccc(-c2ccccc2)cc1 + Nc1ccc(C#CCN(C(=O)Cc2ncc(C(F)(F)F)cc2C(F)(F)F)c2ccc(F)cc2)nn1 | 82.2

same assay, conditions: second compound 1 µM; first compound 10 µM; stronger effect = lower value

Row | Structure (SMILES) | viability, T/C [%]
15 | C#Cc1c(F)ccc2cc(O)cc(-c3ncc4c(N5CC6CCC(C5)N6)nc(OCC56CCCN5CC(F)C6)nc4c3F)c12 (stereo unspecified) + Nc1ccc(C#CCN(C(=O)Cc2ncc(C(F)(F)F)cc2C(F)(F)F)c2ccc(F)cc2)nn1 | 88.8
16 | CC1COCCN1c1cc(C2(O)CC3CCC(C2)O3)c2cnn(-c3ccn[nH]3)c2n1 (stereo unspecified) + Nc1ccc(C#CCN(C(=O)Cc2ncc(C(F)(F)F)cc2C(F)(F)F)c2ccc(F)cc2)nn1 | 18.7
17 | CCc1cc2c(N3CCc4c(cc(Cn5ccnc5)cc4-c4cn(C)nc4C(F)(F)F)C3=O)cc(C)nc2c(OC)n1 + Nc1ccc(C#CCN(C(=O)Cc2ncc(C(F)(F)F)cc2C(F)(F)F)c2ccc(F)cc2)nn1 | 58.8
18 | COc1cc2cc(C(=O)CCC(=O)O)sc2cc1OC + Nc1ccc(C#CCN(C(=O)Cc2ncc(C(F)(F)F)cc2C(F)(F)F)c2ccc(F)cc2)nn1 | 76.8
19 | O=C(Nc1ccc(O)c(NS(=O)(=O)c2ccc(F)cc2)c1)c1ccc(-c2ccccc2)cc1 + Nc1ccc(C#CCN(C(=O)Cc2ncc(C(F)(F)F)cc2C(F)(F)F)c2ccc(F)cc2)nn1 | 67.8

same assay, conditions: second compound 3.16 µM; first compound 0.0316 µM; stronger effect = lower value

Row | Structure (SMILES) | viability, T/C [%]
20 | C#Cc1c(F)ccc2cc(O)cc(-c3ncc4c(N5CC6CCC(C5)N6)nc(OCC56CCCN5CC(F)C6)nc4c3F)c12 (stereo unspecified) + Nc1ccc(C#CCN(C(=O)Cc2ncc(C(F)(F)F)cc2C(F)(F)F)c2ccc(F)cc2)nn1 | 89.1
21 | CC1COCCN1c1cc(C2(O)CC3CCC(C2)O3)c2cnn(-c3ccn[nH]3)c2n1 (stereo unspecified) + Nc1ccc(C#CCN(C(=O)Cc2ncc(C(F)(F)F)cc2C(F)(F)F)c2ccc(F)cc2)nn1 | 79.1
22 | CCc1cc2c(N3CCc4c(cc(Cn5ccnc5)cc4-c4cn(C)nc4C(F)(F)F)C3=O)cc(C)nc2c(OC)n1 + Nc1ccc(C#CCN(C(=O)Cc2ncc(C(F)(F)F)cc2C(F)(F)F)c2ccc(F)cc2)nn1 | 90.6
23 | COc1cc2cc(C(=O)CCC(=O)O)sc2cc1OC + Nc1ccc(C#CCN(C(=O)Cc2ncc(C(F)(F)F)cc2C(F)(F)F)c2ccc(F)cc2)nn1 | 96.9
24 | O=C(Nc1ccc(O)c(NS(=O)(=O)c2ccc(F)cc2)c1)c1ccc(-c2ccccc2)cc1 + Nc1ccc(C#CCN(C(=O)Cc2ncc(C(F)(F)F)cc2C(F)(F)F)c2ccc(F)cc2)nn1 | 92

same assay, conditions: second compound 3.16 µM; first compound 0.1 µM; stronger effect = lower value

Row | Structure (SMILES) | viability, T/C [%]
25 | C#Cc1c(F)ccc2cc(O)cc(-c3ncc4c(N5CC6CCC(C5)N6)nc(OCC56CCCN5CC(F)C6)nc4c3F)c12 (stereo unspecified) + Nc1ccc(C#CCN(C(=O)Cc2ncc(C(F)(F)F)cc2C(F)(F)F)c2ccc(F)cc2)nn1 | 84.2
26 | CC1COCCN1c1cc(C2(O)CC3CCC(C2)O3)c2cnn(-c3ccn[nH]3)c2n1 (stereo unspecified) + Nc1ccc(C#CCN(C(=O)Cc2ncc(C(F)(F)F)cc2C(F)(F)F)c2ccc(F)cc2)nn1 | 70.1
